The subject of one test is MDA-MB-468 cells. As to the kind of experiment: cell proliferation studies. It counts as cell-based, human.
The subject of test [1] is MDA-MB-468 breast cancer cells. Description: apoptosis by QFM, Hoechst-33258 staining. It counts as cell-based, human. Conditions: for percentage of cells undergoing apoptosis (QFM): FIG. 9, safingol 50 μM. As for the experimental part: PRELIMINARY STUDIES. […] Apoptosis was measured by quantitative fluorescent microscopy (QFM) of nuclear changes induced by apoptosis, as determined by bisbenzimide trihydrochloride (Hoescht-33258) staining of condensed nuclear chromatin (24). For the QFM duplicate samples of 500 cells each were counted and scored for the incidence of apoptotic chromatin condensation using an Olympus BH-2 fluorescence microscope.
Applicants also tested the PKC inhibitor UCN-01 (27) which is currently in phase I clinical trial at the NCI. In contrast to safingol, which inhibits PKC by binding to its regulatory domain, UCN-01 inhibits PKC at its catalytic domain. Therefore, assessment of the effect of UCN-01 on inducing apoptosis in combination with MMC on MDA-MB-468 was also performed. The QFM method to quantitate apoptosis was again used. The conditions tested were identical to those described above for safingol except UCN-01 (1 μM) was substituted for safingol in all the conditions.
(§1) Induction of apoptosis was estimated by counting the frequency of condensed nuclear chromatin with Hoechst-33258 stain in duplicate samples of 400 cells.

The test system of the next test is PKC. To be noted: cited from earlier work.
The test system of a further test is cdk2. As to the kind of experiment: cdk2 activity by histone type-I phosphorylation after immunoprecipitation from treated cells. It counts as cell-based, human. To be noted: MKN-74 cells; 24 hours; MMC 5.0 μg/ml, safingol 50 μM; FIG. 8. As for the experimental part:
(ii) Safingol increases cdk2 activity only when co-administered with chemotherapy: For determination of cdk2 activity MKN-74 cells were treated according to the conditions shown to enhance chemotherapy induced apoptosis: (i) no drug (control) for 24 hours, (ii) Mitomycin-C alone (5.0 μg/ml) for 24 hours, (iii) Safingol alone (50 μM) for 24 hours, (iv) the combination of safingol (50 μM) and Mitomycin-C (MMC, 5.0 μg/ml) for 24 hours. Cdk2 activity was determined by histone type-I phosphorylation, as described (38). For these studies cdk2 was first immunoprecipitated from the cell lysates following treatment under these four conditions. The kinase reaction was allowed to proceed at 30° for 30 minutes in the presence of histone type-I and [^32P]ATP. For each sample a control sample was run under the same conditions, but IgG was used in place of […]. This allowed for detection on non-specific kinase activity which was then subtracted out from the cdk2 activity to determine the absolute radioactive incorporation attributable to cdk2. The samples were transferred to a 10% SDS PAGE gel for analysis. The autoradiographs were analyzed on a phosphoimager for determinations of relative cdk2 activity.

Test [2] deals with MKN-74 cells. Description: TdT assay with flow cytometry. Conditions: 24 hours; safingol 50 μM, MMC 5 μg/ml. It counts as cell-based, human. A general note: Flow cytometry measures light scatter and fluorescence of single cells or particles in a stream.
Protocol: Apoptosis was measured by two different methods: (i) Quantitative fluorescent microscopy (QFM) of nuclear changes induced by apoptosis, as determined by bisbenzimide trihydrochloride (Hoescht-33258) staining of nuclear chromatin (15), and (ii) a terminal deoxynucleotidyl transferase (TdT) assay that labels the 3′-OH ends of DNA fragments produced in apoptotic cells (16). […] MMC was diluted in water. A stock safingol solution was constituted in DMSO and was subsequently diluted at least 1:100 in media for all experiments. […] For QFM determinations, the cells were fixed in 3% paraformaldehyde and incubated at room temperature for 10 minutes. […] Aliquots of the cells (10 μl) were placed on glass slides coated with 3-amino-propyl-triethoxysilane, and duplicate samples of 500 cells each were counted and scored for the incidence of apoptotic chromatin condensation using an Olympus BH-2 fluorescence microscope equipped with a BH2-DM2U2UV Dich. […] Green (d-dUTP labeled DNA strand breaks) and red (PI staining for total DNA content) fluorescence of individual cells were measured on a FACScan flow cytometer (Becton Dickinson, San Jose, Calif.). […] The R1 cursor was set using the control specimen to define normal levels of green fluorescence (i.e., basal levels of apoptosis). Cells with fluorescence above the R, cursor were considered apoptotic. […]
In test [3] the test system is gastric cancer cells (SK-GT cells). Description: cell proliferation studies with [3H]-thymidine. It counts as cell-based, human.
The test system of another test is SK-GT-5 cells. Description: apoptosis by quantitative fluorescent microscopy (QFM), Hoechst-33258 staining. It counts as cell-based, human. To be noted: for percentage of cells undergoing apoptosis (QFM): FIG. 4: safingol 50 μM and/or PMA 1 ng/ml for 1 hour, then MMC 5 μg/ml or no drug 24 hours, MMC alone 24 hours. As to the method:
(§2) Apoptosis was measured by two different methods: (i) Quantitative fluorescent microscopy (QFM) of nuclear changes induced by apoptosis, as determined by bisbenzimide trihydrochloride (Hoescht-33258) staining of nuclear chromatin (15), and (ii) a terminal deoxynucleotidyl transferase (TdT) assay that labels the 3′-OH ends of DNA fragments produced in apoptotic cells (16). […] MMC was diluted in water. A stock safingol solution was constituted in DMSO and was subsequently diluted at least 1:100 in media for all experiments. […] For QFM determinations, the cells were fixed in 3% paraformaldehyde and incubated at room temperature for 10 minutes. The fixative was removed and the cells were washed with 1×PBS, resuspended in 20 μl 1×PBS containing only 8 μg/ml of bisbenzimide trihydrochloride (Hoechst #33258), and incubated at room temperature for 15 minutes. Aliquots of the cells (10 μl) were placed on glass slides coated with 3-amino-propyl-triethoxysilane, and duplicate samples of 500 cells each were counted and scored for the incidence of apoptotic chromatin condensation using an Olympus BH-2 fluorescence microscope equipped with a BH2-DM2U2UV Dich. Mirror Cube filter (Olympus, Lake Success, N.Y.). For the TdT assays, the ApopTag Kit (Oncor, Gaithersburg, Md.) was used. This method employs a fluoresceinated antidigoxigenin antibody directed against nucleotides of digoxigenin-11-dUTP (d-dUTP) which are catalytically added to the 3-ends fragmented DNA by TdT. Briefly, 1–2×10^6 cells were washed and fixed with 1% paraformaldehyde. The fixed cells were incubated in a reaction mixture containing TdT and d-dUTP for 30 minutes at 37° C. Stop/wash buffer was added, and the cells were resuspended in 100 μl of fluorescinated anti-digoxigenin antibody for 30 minutes at room temperature. The cells were then washed with 0.1% Triton X-100 and counterstained with propidium iodide (PI) solution. Green (d-dUTP labeled DNA strand breaks) and red (PI staining for total DNA content) fluorescence of individual cells were measured on a FACScan flow cytometer (Becton Dickinson, San Jose, Calif.). The resulting bivariate plots enabled the detection of apoptotic events within the cell cycle. The R1 cursor was set using the control specimen to define normal levels of green fluorescence (i.e., basal levels of apoptosis). Cells with fluorescence above the R, cursor were considered apoptotic. The data from 10,000 cells were collected and analyzed using CellFit and LYSYS software (Becton Dickinson).
For the QFM duplicate samples of 500 cells each were counted and scored for the incidence of apoptotic chromatin condensation using an Olympus BH-2 fluorescence microscope.

For a further test, the target named is case in kinase. Conditions: read-out: concentration for 50% inhibition of case in kinase; safingol; cited from earlier work.
Test [4] relates to MKN-74 cells. Description: apoptosis by QFM, Hoechst-33258 staining. It counts as cell-based, human. As for the experimental part:
as §2
Apoptosis was again measured by QFM staining.
as §1
For these studies apoptosis was measured by quantitative fluorescent microscopy (QFM) determination with bisbenzimide trihydrochloride stain (Hoescht-33258) for condensed nuclear chromatin characteristic of apoptotic cells.
For QFM determinations 500 cells were counted and scored for the incidence of apoptotic chromatin changes under an Olympus BH-2 fluorescence microscope in duplicate samples, ±SD, using a BH2-DM2U2UV Dich. Mirror Cube filter.
To study this further applicants elected to examine five bis-indolylmaleimides with various potencies against PKC. […] The induction of apoptosis was estimated by counting the frequency of condensed nuclear chromatin with Hoechst-33258 stain in duplicate samples of 400 cells.

This is an account of results in US7045495B2 (Sloan-Kettering Institute for Cancer Research, priority 1996, dated 2006).

Each structure is given as a SMILES string. Several values for one entry are separate records, joined by “and”; a condition that tells them apart may be missing. Equal entries are not always repeated.

With `CCCCCCCCCCCCCCC[C@H](O)[C@@H](N)CO` [safingol, L-threo-dihydrosphingosine], the “highest non-toxic dose (cell proliferation studies)” value stood at 50 µM in the test on MDA-MB-468 cells and 50 µM in [3] (SK-GT / SK-GT-5 / gastric cancer cells, 24 hours). Also, the “percentage of cells undergoing apoptosis (QFM)” value in test [1] (24 hours, MMC 5.0 μg/ml) is 11%±1; with SK-GT-5 cells it was “essentially no effect on inducing apoptosis”. Moreover, the “concentration range that inhibits PKC activity” value with PKC is on record as “micromolar ranges”. Also, the IC50 in the test with PKC (safingol, in vitro, read-out: concentration which inhibits PKC enzyme activity by 50%) was 33 µM and 30 µM; on case in kinase, above 218 µM. Moreover, the cdk2 activity result in the test on cdk2 was “decreased cdk2”. For the same compound, in the test on MKN-74 cells [2], the “apoptotic cells: green fluorescence above R1 region (TdT assay)” value was “essentially no apoptosis”. For the same compound, the “potentiation of MMC-induced apoptotic response by addition of safingol” value in the test on SK-GT-5 cells (SK-GT-5) and in the test on MKN-74 cells [4] (MKN-74) was “approximately 2 fold” each time.
For the compound `CO[C@@]12[C@H](COC(N)=O)C3=C(C(=O)C(C)=C(N)C3=O)N1C[C@@H]1N[C@@H]12` [MMC, Mitomycin-C], the “percentage of cells undergoing apoptosis (QFM)” value in test [1] (24 hours, MMC 5.0 μg/ml) is on record as 6%±1; in test [1] (24 hours, MMC […]), 4%±2; in the test on SK-GT-5 cells, 36%±4; in the test with MKN-74 cells [4] (24 hours, RO 32-0432 1 μM, MMC), 16%±2%; in the test on MKN-74 cells [4] (MKN-74 (wild-type p53), 24 hours, safingol 50 μM, MMC 5 μg/ml) it was 40%. Also, the “induction of apoptosis (condensed chromatin, 400 cells)” value in test [1] (MDA-MB-468, 24 hours, UCN-01 7.5 to 10 μM, MMC 5 μg/ml) is listed as 6% ± 1; in the test on MKN-74 cells [4] (24 hours, PKC inhibitor 1 to 4 μM, MMC 5 μg/ml), 10% ±2%; in the test on MKN-74 cells [4] (MKN-74, 24 hours, Flavo 300 nM, MMC 5 μg/ml), 7% ± 1. In test [1] (MDA-MB-468, flavopiridol, MMC), the “percentage of cells undergoing apoptosis” value is 10%±2%. The cdk2 activity result in the test with cdk2 was “decreased cdk2”. The “apoptotic cells: green fluorescence above R1 region (TdT assay)” value in the test with MKN-74 cells [2] was “increased green fluorescence”. In addition, in [3] (MMC 5 μg/ml), the “inhibition of cell proliferation” value is < 20% and 20%. Further, the “Percent Apoptosis” value in the test with MKN-74 cells [4] (24 h continuous (single drug) or concomitant, flavopiridol 300 nM, MMC 1 μg/ml, paclitaxel 50 μM, carboplatin) was 7%±1%. Further, the “% APOPTOSIS” value in the test on MKN-74 cells [4] (24 hours, FLAVO 300 nM, Taxol 50 μM, MMC 1 μg/ml, single drugs or in combination) is recorded as 7%. In addition, in the test on MKN-74 cells [4] (24 hours, FLAVO 300 nM, Taxol 50 μM, MMC 1 μg/ml, single drugs or together), the “percent induction of apoptosis, Concomitant” value was 7% ± 1%. In addition, the “induction of apoptosis (QFM)” value is listed as 26%±5% in the test with MKN-74 cells [4] (24 hours, safingol 50 μM, UCN-01 10 μM, MMC 5 μg/ml) and 7%±1% with MKN-74 cells [4] (FIG. 7, 24 hours, flavopiridol 300 nM, MMC 50 μM (as printed b127)). Also, in the test on MKN-74 cells [4] (Ro 2 μM, MMC 1 μg/ml), the “percent induction of apoptosis, 6hrs” value came to 1.0%. Further, the “percent induction of apoptosis, 12hrs” value with MKN-74 cells [4] (Ro 2 μM, MMC 1 μg/ml) stood at 0.8%. Besides, in the test on MKN-74 cells [4] (Ro 2 μM, MMC 1 μg/ml), the “percent induction of apoptosis, 24hrs” value stood at 5.8%. In the test on MKN-74 cells [4] (Ro 2 μM, MMC 1 μg/ml), the “percent induction of apoptosis, 48hrs” value stood at 27%. The “percent induction of apoptosis, 72hrs” value in the test on MKN-74 cells [4] (Ro 2 μM, MMC 1 μg/ml) was 30%.
